Positions of bridges follow the written chain, without caps; N, C: chain ends. Non-standard residues stand in square brackets, D forms with d. No end group written: not given here. COCH2 = acetyl group that carries the bridge; hCys = N[C@@H](CCS)C(=O)O
Experiments:
[1] = Alkali treatment stability of cyclic peptide (LC); assay type: physicochemical; conditions: 0.5 mol/L sodium hydroxide aqueous solution added, room temperature, 3 hours
Description: In addition, the stability of the cyclic peptide (SEQ ID NO: 335) containing a cysteine residue in the cyclized portion and the cyclic peptide (SEQ ID NO: 327) containing a homocysteine residue in the cyclized portion was compared under the following alkali treatment, which is a more severe condition.
The alkali treatment was performed by the following method. 25 μL of a 0.2 mg/mL cyclic peptide aqueous solution was prepared, 58.8 μL of a 0.5 mol/L sodium hydroxide aqueous solution was added to the aqueous solution, and the mixture was incubated at room temperature for 3 hours to obtain an aqueous solution of the cyclic peptide alkali-treated. The total area of all the peaks in LC/MS of the cyclic peptide before the alkali treatment was set to 100%, and the proportion of the total area of all the peaks in LC/MS of the aqueous solution of the cyclic peptide alkali-treated was determined to calculate the residual rate of the cyclic peptide.
The LC conditions used for the evaluation of molecular stability are the same as those in the measurement of the above-described cyclic peptide treated with a reducing agent.

[2] = system: BaF3 cells stably expressing FGFR (human); assay: BaF3 cell proliferation-promoting effect, human FGFR; assay type: cell-based; conditions: viable cells at the addition concentration (0.001 to 10 nmol/L) with largest number; 2 nights
Description: (§1) The FGFR phosphorylation ability of the cyclic peptide complex was evaluated using the BaF3 cell proliferation-promoting effect in which FGFR was stably expressed.
(§2) BaF3 cells stably expressing FGFR were established by introducing a vector (human: Gene Copoeia, EX-Y2820-M67, bovine: sequence of Accession No. A4IFL5 was introduced into pCDNA3.1/Hygro(+) Mammalian Expression Vector (Thermo, V87020), porcine: sequence of Accession No. A0A8D1E4H1 was introduced into pCDNA3.1/Hygro(+) Mammalian Expression Vector (Thermo, V87020), and avian: sequence of Accession No. P21804 was introduced into pCDNA3.1/Hygro(+) Mammalian Expression Vector (Thermo, V87020)) into which FGFR gene had been incorporated, into BaF3 cells using Nucleofector and performing drug selection of cells into which the FGFR gene had been introduced using hygromycin.
(§3) The evaluation of the proliferation-promoting effect of BaF3 cells in which FGFR is stably expressed was performed by the following method. […] The number of viable cells was calculated from the imaging data, and the cell proliferation-promoting effect was evaluated according to the following evaluation criteria. […]

[3] = system: BaF3 cells stably expressing FGFR (bovine); assay: BaF3 cell proliferation-promoting effect, bovine FGFR; assay type: cell-based; conditions: viable cells at the addition concentration (0.001 to 10 nmol/L) with largest number; 2 nights
Description: as §1, §2, §3

[4] = system: BaF3 cells stably expressing FGFR (porcine); assay: BaF3 cell proliferation-promoting effect, porcine FGFR; assay type: cell-based; conditions: viable cells at the addition concentration (0.001 to 10 nmol/L) with largest number; 2 nights
Description: as §1, §2, §3

[5] = system: BaF3 cells stably expressing FGFR (avian); assay: BaF3 cell proliferation-promoting effect, avian FGFR; assay type: cell-based; conditions: viable cells at the addition concentration (0.001 to 10 nmol/L) with largest number; 2 nights
Description: as §1, §2, §3

[6] = system: hMSC-Human Mesenchymal Stem Cells; assay: Effect of maintaining MSC undifferentiated potency (gene expression); assay type: cell-based
Description: The effect of maintaining mesenchymal stem cell (MSC) undifferentiated potency of the cyclic peptide complex was evaluated.
MSC was prepared in the same manner as in Example 7.
The evaluation of the effect of maintaining the MSC undifferentiated potency was performed by the following method. First, a culture medium (hereinafter, referred to as a custom culture medium) in which bFGF was removed from PRIME-XV MSC Expansion XSFM (FUJIFILM Irvine Scientific, Inc., 91149) was prepared. Next, Prime-XV Human Fibronectin (FUJIFILM Irvine Scientific, Inc., 31002) was dissolved in PBS (Fujifilm Wako Pure Chemical Corporation, 164-23551), 2 μg/cm^2 of the solution was added to a 12-well plate used for proliferation, and the 12-well plate was allowed to stand at room temperature for 3 hours to coat the 12-well plate with fibronectin. Thereafter, the MSCs subjected to the subculture were peeled using Tryple Express (Thermo, 12604-013), washed once with a custom culture medium, suspended in a custom culture medium in which a cyclic peptide complex or bFGF (R&D Systems, 3718-GMP) was diluted to final concentrations of 10 nmol/L and 1 nmol/L, and seeded on a 12-well plate coated with fibronectin. In this case, conditions in which the cyclic peptide complex and bFGF were not added as a negative control were prepared. After culturing at 37° C. (5% CO2) for 2 nights, the culture medium was replaced by removing the supernatant of the culture medium and adding the same amount of a culture medium prepared to have the same composition as the removed culture medium. After further culturing at 37° C. (5% CO2) for 2 nights, RNA was extracted using an RNeasy Plus Mini Kit (Qiagen, 74136) according to the manufacturer's protocol. […] The expression level of each gene was normalized by setting the expression level of the well to which 1 nmol/L bFGF was added to 1.

[7] = 1 nmol/L bFGF versus negative control

Substance	residual rate of the cyclic peptide [1] [%]	Evaluation result of cell proliferative properties Human [2]	Evaluation result of cell proliferative properties Bovine [3]	Evaluation result of cell proliferative properties Porcine [4]	Evaluation result of cell proliferative properties Avian [5]	other results
A-(Hcy)-VWTFDRHAQEISQALH-(K(acetyl))-VKKK (A[hCys]VWTFDRHAQEISQALHK(COCH2)VKKK; thioether 2-19) [SEQ ID NO: 327]	28					
343 (ACVWTFDRHAQEISQALHKVGSGSGSSGSGSSGSSACVWTFDRHAQEISQALHKV; also: cyclic peptide, ring type and places not given here) [compound 343]		C (The number of viable cells is 100 cells/well or more and less than 200 cells/well.)	A (The number of viable cells is 400 cells/well or more.)	B (The number of viable cells is 200 cells/well or more and less than 400 cells/well.)	B (The number of viable cells is 200 cells/well or more and less than 400 cells/well.)	
bFGF: basic fibroblast growth factor (R&D Systems, 3718-GMP), growth factor used as comparison						expression level of Nanog [6, 7]: did not change substantially; expression level of Oct4 [6, 7]: did not change substantially; expression level of Sox2 ([6]; cyclic peptide complex 10 nmol/L, bFGF 1 nmol/L, normalized to 1 nmol/L bFGF = 1, FIG. 4): changed
A-(C)-VWTFDRHAQEISQALH-(K(acetyl))-VKKK (ACVWTFDRHAQEISQALHK(COCH2)VKKK; thioether 2-19 (inferred)) [SEQ ID NO: 335]	15					
344 (ACVWTFDRHAQEISQALHKVACVWTFDRHAQEISQALHKV; also: cyclic peptide, ring type and places not given here) [compound 344]		B (The number of viable cells is 200 cells/well or more and less than 400 cells/well.)	A (The number of viable cells is 400 cells/well or more.)	B (The number of viable cells is 200 cells/well or more and less than 400 cells/well.)	B (The number of viable cells is 200 cells/well or more and less than 400 cells/well.)	

— patent US20260008817A1, “CYCLIC PEPTIDE OR SALT THEREOF, AND USES THEREOF” (FUJIFILM Corporation, priority 2023, published 2026)
